Results reported in patent US20220324906A1 (Novo Nordisk A/S, priority 2014, published 2022).

Experiments:
eMuLV virus = assay: Clearance of spiked eMuLV by chromatography with a caprylic acid wash; settings: 30 min
Description: A cell line media containing a recombinant human Fab-fragment was filtered through a 0.22 μm and then spiked with eMuLV virus. The spiked media was applied to a column packed with Capto L media (GE-Healthcare). […] Process temperature was 15-25° C. […] A cell line media containing a recombinant human antibody (IgG1) was filtered through a 0.22 μm filter and spiked with eMuLV virus. The spiked media was loaded on a column packed with Protein A (Mab Select SuRe, Ge Healthcare). […] After pH had stabilised the washing continued for 30 min. After 3 other washings (equilibration buffer, 50 mmol/kg phosphate, 1 mol/kg NaCl and then equilibration buffer), the mAb was eluted from the column with a formate buffer, pH 3.5. […] The process temperature was 15-25° C. A cell line media containing a recombinant human antibody (IgG4) was filtered through a 0.22 μm filter and spiked with eMuLV virus. The spiked media was loaded on a column packed with Protein A (Mab Select SuRe, Ge Healthcare). […] After pH had stabilised the washing continued for 30 min. After 3 other washing (equilibration buffer, 50 mmol/kg phosphate, 1 mol/kg NaCl) and then equilibration buffer), the mAb was eluted from the column with a formate buffer, pH 3.5. […] The process temperature was 15-25° C. A cell line media containing a recombinant human antibody (IgG1) was filtered through a 0.22 μm filter and spiked with eMuLV virus. The spiked media was loaded on a column packed with Protein A (Mab Select SuRe, Ge Healthcare). […] After pH had stabilised the washing continued for 30 min. After 3 other washings (equilibration buffer, 50 mmol/kg phosphate, 1 mol/kg NaCl and then equilibration buffer), the mAb was eluted from the column with a formate buffer, pH 3.5. […] The process temperature was 2-8° C.

MuLV virus = assay: Inactivation of MuLV with caprylic acid at different concentrations and pH; settings: for Titre of MuLV virus after inactivation with caprylic acid: MuLV content 1.2 × 10^6; for Titre of MuLV after inactivating of MuLV with 60 mM caprylic acid: MuLV content 2.7 × 10^5
Source text: The inactivation of MuLV was investigated at different concentrations of caprylic and at different pH (Table 6).

[1] = 60 mM, pH 6.0, free caprylic acid 4.3 mM, 1 minute
[2] = 60 mM, pH 6.0, free caprylic acid 4.3 mM, 5 minutes
[3] = 60 mM, pH 6.0, free caprylic acid 4.3 mM, 10 minutes
[4] = 60 mM, pH 6.0, free caprylic acid 4.3 mM, 30 minutes

SMILES: CCCCCCCC(=O)O [caprylic acid]
- LRV (eMuLV virus; Example 2: IgG1, Protein A, 32 mmol/kg caprylate buffer pH 5.8 (2.9 mM free caprylic acid), 15-25° C.): >3.0
- LRV (eMuLV virus; Example 3: IgG4, Protein A, 32 mmol/kg caprylate buffer pH 5.8 (2.9 mM free caprylic acid), 15-25° C.): >2.8
- LRV (eMuLV virus; Example 4: IgG1, Protein A, 35 mmol/kg caprylate buffer pH 5.7 (3.9 mM free caprylic acid), 2-8° C.): >3.0
- Titre of MuLV virus after inactivation with caprylic acid (MuLV virus; 10 mM, pH 5.0, free caprylic acid 4.4 mM, 5 minutes): 0
- Titre of MuLV virus after inactivation with caprylic acid (MuLV virus; 10 mM, pH 5.0, free caprylic acid 4.4 mM, 10 minutes): 0
- Titre of MuLV virus after inactivation with caprylic acid (MuLV virus; 10 mM, pH 5.0, free caprylic acid 4.4 mM, 30 minutes): 0
- Titre of MuLV virus after inactivation with caprylic acid (MuLV virus; 20 mM, pH 5.5, free caprylic acid 3.9 mM, 5 minutes): 0
- Titre of MuLV virus after inactivation with caprylic acid (MuLV virus; 20 mM, pH 5.5, free caprylic acid 3.9 mM, 10 minutes): 0
- Titre of MuLV virus after inactivation with caprylic acid (MuLV virus; 20 mM, pH 5.5, free caprylic acid 3.9 mM, 30 minutes): 0
- inactivation of MuLV (MuLV virus; 60 mM caprylic acid, pH range 5.9 to 6.3, within 5 minutes): more than 5.4 log 10
- Titre of MuLV after inactivating of MuLV with 60 mM caprylic acid (MuLV virus; 60 mM, pH 5.9, free caprylic acid 5.3 mM, 5 minutes): 0
- Titre of MuLV after inactivating of MuLV with 60 mM caprylic acid (MuLV virus; 60 mM, pH 5.9, free caprylic acid 5.3 mM, 10 minutes): 0
- Titre of MuLV after inactivating of MuLV with 60 mM caprylic acid (MuLV virus; 60 mM, pH 5.9, free caprylic acid 5.3 mM, 30 minutes): 0
- Titre of MuLV virus after inactivation with caprylic acid (MuLV virus; [1]): 0
- Titre of MuLV after inactivating of MuLV with 60 mM caprylic acid (MuLV virus; [1]): 2.5
- Titre of MuLV virus after inactivation with caprylic acid (MuLV virus; [2]): 0
- Titre of MuLV after inactivating of MuLV with 60 mM caprylic acid (MuLV virus; [2]): 0
- Titre of MuLV virus after inactivation with caprylic acid (MuLV virus; [3]): 0
- Titre of MuLV after inactivating of MuLV with 60 mM caprylic acid (MuLV virus; [3]): 0
- Titre of MuLV virus after inactivation with caprylic acid (MuLV virus; [4]): 0
- Titre of MuLV after inactivating of MuLV with 60 mM caprylic acid (MuLV virus; [4]): 0
- Titre of MuLV after inactivating of MuLV with 60 mM caprylic acid (MuLV virus; 60 mM, pH 6.1, free caprylic acid 3.5 mM, 1 minute): 0
- Titre of MuLV after inactivating of MuLV with 60 mM caprylic acid (MuLV virus; 60 mM, pH 6.1, free caprylic acid 3.5 mM, 5 minutes): 0
- Titre of MuLV after inactivating of MuLV with 60 mM caprylic acid (MuLV virus; 60 mM, pH 6.1, free caprylic acid 3.5 mM, 10 minutes): 0
- Titre of MuLV after inactivating of MuLV with 60 mM caprylic acid (MuLV virus; 60 mM, pH 6.1, free caprylic acid 3.5 mM, 30 minutes): 0
- Titre of MuLV after inactivating of MuLV with 60 mM caprylic acid (MuLV virus; 60 mM, pH 6.2, free caprylic acid 2.8 mM, 5 minutes): 0
- Titre of MuLV after inactivating of MuLV with 60 mM caprylic acid (MuLV virus; 60 mM, pH 6.2, free caprylic acid 2.8 mM, 10 minutes): 0
- Titre of MuLV after inactivating of MuLV with 60 mM caprylic acid (MuLV virus; 60 mM, pH 6.2, free caprylic acid 2.8 mM, 30 minutes): 0
- Titre of MuLV after inactivating of MuLV with 60 mM caprylic acid (MuLV virus; 60 mM, pH 6.3, free caprylic acid 2.2 mM, 5 minutes): 0
- Titre of MuLV after inactivating of MuLV with 60 mM caprylic acid (MuLV virus; 60 mM, pH 6.3, free caprylic acid 2.2 mM, 10 minutes): 0
- Titre of MuLV after inactivating of MuLV with 60 mM caprylic acid (MuLV virus; 60 mM, pH 6.3, free caprylic acid 2.2 mM, 30 minutes): 0
- inactivation of MuLV (MuLV virus; caprylic acid concentrations of about 2 mM, after 30 minutes): partial inactivation
- inactivation of MuLV (MuLV virus; free caprylic acid below 1 mM): no inactivation was observed
- inactivation of MuLV (MuLV virus; pH range 5.0 to 6.0, free caprylic acid at least about 4 mM, after 5 minutes): complete inactivation
